System: mucin
Assay: Bulk diffusion of FITC-peptides and fluorescein salt in mucin
Type: in vitro ADME
Settings: DPBS/Dmucin

Structure (SMILES): O=C([O-])c1ccccc1-c1c2ccc(=O)cc-2oc2cc([O-])ccc12.[Na+].[Na+] [Fluorescein salt, fluorescein sodium salt]
- fold decreased diffusion in mucin compared to saline: 3 fold
